In data set [1] the test system is choroidal MC degranulation. The format is in vivo, rat. The method, then: Hydrogel preparation and injection. […] All components were then mixed together by vortex and placed on ice. The final solution was loaded into an insulin syringe with a 31-gauge needle (BD Biosciences, San Jose, Calif., USA) and then, exposed to UV light (AnalytikJena, Upland, Calif., USA) for 1.5 minutes. The release and stability of the hydrogel were evaluated in vitro in PBS, pH 7.4 at 37° C.20. The amount of 48/80 released was measured using bicinchoninic acid (BCA) assay.
Alcian blue staining. After RPE removal, eyecups were fixed in methanol-formalin-acetic acid cocktail for 30 minutes and MCs were further stained with 0.05% Alcian blue (pH 5.0) in 0.02 M sodium acetate buffer for 45 minutes. Choroids were isolated after eyecups were split at the meridian and the number of non-degranulated and degranulated MCs were counted.
RPE degeneration. After the choroid/sclera eyecup was stained with anti-RPE65 Ab, 4-5 fields from the gel and non-gel areas of each choroid were captured as optimized z-stacks at 10 or 20× magnification with Zeiss LSM710. Images were exported to ImageJ software, converted into 8-bit gray color and then, thresholded. The dark area was considered degenerating RPE. To exclude the area of RPE nucleus (unstained with anti-RPE65 Ab, therefore dark) from the total dark area, particle sizes ranging from 100-infinity (pixels^2) were analyzed so nuclei were excluded. Percentage of RPE degeneration was averaged per choroid and then, quantified.
Retinal and choroidal thickness. Eight μm cryosections through the optic nerve were stained with Picrosirius Red Stain Kit (Polysciences, Inc, Warrington, Pa., USA) for 5 minutes as recommended by the manufacturer. After rinsing in hydrochloric acid and dehydrating in ethanol, sections were cover-slipped with Permount Mounting Medium (Thermo Fisher Scientific, Waltham, Mass., USA). The sections were then imaged with a Zeiss Photomic II microscope at 10×, and adjacent overlapping images of each section were taken from Ora serrata to Ora serrata. The overlapping images were then stitched using Adobe Photoshop and a panorama image was generated. The entire retina and choroid of each panorama image was precisely hand-traced and areas of the retina and choroid, respectively, were measured using ImageJ.
(§1) Electroretinogram (ERG). After overnight dark adaptation, rats were deeply anesthetized followed by pupil dilation. The rats were placed on a heated platform and full-field scotopic ERGs were elicited by white light flashes with corneal electrodes at intensities ranging from 0.01 to 1 cd·s/m^2 using the Celeris ERG system (Diagnosys LLC, Lowell, Mass., USA). The amplitude of the a- and b-waves was measured from the a-wave trough to the b-wave peak.
Volumetric and sphericity measurement. Volumetric and sphericity measurements were performed in the rats to analyze changes in shape and size of choroidal macrophages/monocytes stained with Iba1 as previously reported.^23 Briefly, randomly chosen 4-5 fields of optimized 40× magnification z-stacks per choroid captured with Zeiss LSM710 were opened in Surpass View of Imaris software and surfaces (surface detail 1.5 μm) were created, using background subtraction (0.5 μm). Voxel number filtering was applied to remove nonspecific particles in the surfaces created. Cells touching others or ones which had only a portion of the cell body visible were omitted from the volume rendering and then, the cell volume and sphericity were quantified with Imaris software.
(§2) Drug treatments. Rats were pretreated for 1-2 days prior to 48/80 hydrogel injection with either oral treatment of ketotifen fumarate (15 mg/kg) or PBS twice daily. MC tryptase inhibitor APC 366 (5 mg/kg, CAS 258932-85-8, R&D Systems, Minneapolis, Minn.)^24 or control vehicle was administered subcutaneously once daily for 8 weeks.

The conditions of data set [2]: mice, osteoarthritis model; cited from earlier work.
Data set [3] can be described thus: Tolerability of oral ketotifen fumarate in rats (RPE, body weight, ERG). The format is in vivo, rat. Here is the method:
as §1, §2

Data set [4] has as its system choroidal MCs. The data set is described as follows: Ex vivo eyecup assay after oral pretreatment of rats. Further details: species or system rat. Conditions: oral 15 mg/kg twice daily for 4 days prior to enucleation; eyecups in 48/80 300 μg/ml 3 hours; compared to PBS. The method, then: (§3) Ex vivo assays. An ex vivo assay was developed to evaluate drugs quickly and efficiently. After enucleation, the anterior segments and retinas were excised and the eyecups were split at the meridian and divided in halves. Then, eyecups were incubated with 300 μg/mL of 48/80 with or without 300 μg/mL of ketotifen fumarate in serum free DMEM in a 48-well plate for 3 hours. To evaluate oral ketotifen fumarate potential to prevent MC degranulation, rats were treated orally twice daily with ketotifen fumarate (15 mg/kg) in PBS or with PBS as control for 4 days and 2 hours prior to enucleation on the 5th day. Eyes were enucleated and exposed in 48/80 serum free DMEM for 3 hours. After washing, RPE was removed and the eyecup fixed for histochemistry. The choroid was isolated from the sclera and MCs were stained for NSE activity and viewed on the Zeiss LSM710 for the autofluorescence of the reaction product. The numbers of non-degranulated and degranulated cells were counted in the whole choroid. […]
(§4) Volumetric and sphericity measurement. […] Cells touching others or ones which had only a portion of the cell body visible were omitted from the volume rendering and then, the cell volume and sphericity were quantified with Imaris software.

Data set [5] is described as follows: Pharmacokinetic study of oral ketotifen fumarate in eye tissue (LC/MS-MS). The class given is in vivo, rat. Conditions: 3 mg/kg once daily by gavage, sacrificed on the 5th day. Here is the method: Pharmacokinetic study. Ketotifen fumarate quantification in plasma and eye tissue was conducted using high-performance liquid chromatography with tandem mass spectrometry (LC/MS-MS). Briefly, acetonitrile containing 0.5 μM losartan as internal standard was used to extract ketotifen from choroid and retina. Standards were prepared by spiking ketotifen fumarate in naive tissue from […] in a half log dilution series. Samples were weighed and placed in low retention microcentrifuge tubes with 5 μL extraction solution/mg tissue and pestle homogenized. Samples were vortexed followed by centrifugation at 16 000 g for 5 minutes at 4° C. The supernatants were transferred to a 96-well plate and 2 μL were injected for analysis. Samples were analyzed on an UltiMate 3000 UHPLC coupled to Q Exactive Focus orbitrap mass spectrometer (Thermo Fisher Scientific, Waltham, Mass., USA) using an Agilent EclipsePlus C18 RRHD (1.8 μm; 2.1. 100 mm) column. The mobile phase consisted of water+0.1% formic acid, and acetonitrile+0.1% formic acid. […] Samples were analyzed in positive ion mode via heated electrospray with capillary temperature set at 350° C. and a spray voltage of 3.5 kV. […] Data were acquired and quantified with Xcalibur software (Thermo Fisher Scientific, Waltham, Mass., USA).

The next data set concerns RBL-2H3 cells. The data set is described as follows: β-hexosaminidase release assay for MC degranulation in RBL-2H3 cells. The class given is cell-based. As to conditions: Rattus norvegicus, RBL-2H3, 0.75 h; 48/80 10 μg/mL, ketotifen fumarate 10 μg/mL, 45 minutes. Here is the method: In vitro assays. RBL-2H3 cells (CRL-2256, ATCC, Manassas, Va., USA) were used for the in vitro assay for MC degranulation. Cell degranulation was assessed by the (3-hexosaminidase release as previously described.^22 A density of 50 000 cells/well was plated overnight in a 96-well plate. Ten μg/mL of 48/80 or 10 μg/mL of ketotifen fumarate (1(2628, Millipore Sigma, St Louis, Mo., USA)+10 μg/mL of 48/80 dissolved in 100 μL serum free media (DMEM with 1.0 g/L glucose) (Thermo Fisher Scientific, Waltham, Mass.) were added to each well and incubated for 45 minutes. Then, the cells were lysed using 1% triton X-100 to determine MC β-hexosaminidase that was still cell associated. Twenty μL of the supernatant and then, the cell lysate was collected and added to 50 μL of cold 4-Nitrophenyl N-acetyl-B-d-glucosaminide (1.3 mg/mL in Citrate Buffer, pH 4.5, Millipore Sigma, St Louis, Mo., USA) to detect the amount of β-hexosaminidase released. […] The plate was read at 405 nm wavelength using a microplate reader (ELx808, BioTek, Winooski, Vt., USA). Degranulation was calculated as the percentage of β-hexosaminidase activity measured in the supernatants relative to the total amount of β-hexosaminidase activity in the cells exposed to 1% triton X-100 (100% degranulation).

The conditions of data set [6]: rats; cited from earlier work.
For data set [7], the system named is choroidal MCs. In words: Ex vivo eyecup assay, co-incubation with 48/80 (MC degranulation, macrophage volume and sphericity). The class given is cell-based. Conditions: S/D rat eyecups, 48/80 300 μg/mL with ketotifen fumarate 300 μg/mL, 3 hours. The method, then: as §3, §4
[8] abbreviates: APC 366 5 mg/kg subcutaneous daily, 4 weeks.
[9] abbreviates: oral ketotifen fumarate 15 mg/kg twice daily, 4 weeks post 48/80-hydrogel implantation.

SMILES strings stand for the structures. Structures can show the parent of a compound that is named as a salt. Where two headings read alike, the source gives them in different places.

On to `NC(=O)[C@@H]1CCCN1C(=O)[C@H](CCCN=C(N)N)NC(=O)c1ccc2ccccc2c1O` [APC 366], for which, in data set [1] (setting [8]), the RPE degeneration result is on record as “RPE degeneration was significantly inhibited” and the choroidal macrophage/monocyte activation entry was “choroidal macrophage/monocyte activation was prevented”. Besides, in data set [1] (APC 366 5 mg/kg subcutaneous daily, 8 weeks), the “retinal and choroidal thickness” value was “significantly less retinochoroidal thinning”. In data set [1] (rat, in vivo, sc, 5 mg/kg), the “ERG amplitude, a- and b-waves” value was “reduction in ERG amplitude of both a- and b-waves was prevented”. Moreover, in data set [2], the “inflammation (transcriptional expression of IL-1β, IL-6, IL-8, CC-motif ligand 2, MMP-3)” value was “suppressed inflammation”.

Broadly, the inhibition is the change of the read-out against control, counted positive when it falls. As for `CN1CCC(=C2c3ccccc3CC(=O)c3sccc32)CC1` [ketotifen fumarate], in data set [1] (setting [9]), the MC degranulation entry was “significantly prevented” and the RPE degeneration result is “significantly prevented RPE degeneration”. Moreover, in data set [1] (oral ketotifen fumarate 15 mg/kg twice daily, 8 weeks post implantation), the “retina and choroidal thickness” value was “retinochoroidal thinning was inhibited”. The “RPE morphology or viability” value in data set [3] (normal S/D rats, oral 15 mg/kg twice daily for 6 wk) was “did not affect RPE morphology or viability”. Also, the “ERG amplitudes after drug treatment alone” value in data set [3] (normal rats, 6 weeks of drug treatment) was “normal”. Further, in data set [3] (oral administration), the adverse effects entry is on record as “did not manifest any adverse effects”. Further, the “growth of the animals (body weight)” value in data set [3] (oral twice daily for 6 wk after 48/80 implantations) is “nor did it affect growth of the animals”. Moreover, in the data set on choroidal MCs [4], the MC degranulation prevented worked out at 37% and the macrophage activation result is “significantly prevented macrophage activation”. In addition, in data set [5], the “ketotifen fumarate in choroid” value was 13 to 29 nM and the “ketotifen fumarate in retina” value lay within 12 to 52 nM. The compound also returned an inhibition at 10 µg/mL in the data set on RBL-2H3 cells of 56%. In addition, the “non-REM and REM sleep” value in data set [6] is “dose dependently decreased non-rapid eye movement (REM) sleep and increased REM sleep”. Further, in the data set on choroidal MCs [7], the “choroidal macrophage activation (sphericity, volume of Iba1+ cells)” value is on record as “choroidal macrophage activation was prevented” and the “prevention of 48/80-induced MC degranulation” value was “prevented MC degranulation, equivalent to the level of untreated eyecups”.

Source of the values: patent US20220397569A1, “ASSAY FOR RAPID EVALUATION OF CHOROIDAL MAST CELL DEGRANULATION” (THE JOHNS HOPKINS UNIVERSITY, priority 2019, published 2022).
